Measurements from patent US20050020576A1, “Kappa agonist compounds and pharmaceutical formulations thereof” (priority 1996, published 2005).
Where a name gives a salt, the structure may show the parent alone.

The compounds below were run against cloned human kappa receptor (Homo sapiens, UniProt P41145) (assay: biochemical). Details: not given.
Format: binding
Set-up: (3H)-Diprenorphin, % / k [3H] Diprenorphin, %: dose or concentration left out as unconfirmed

cloned human kappa receptor, sequence (P41145 whole entry): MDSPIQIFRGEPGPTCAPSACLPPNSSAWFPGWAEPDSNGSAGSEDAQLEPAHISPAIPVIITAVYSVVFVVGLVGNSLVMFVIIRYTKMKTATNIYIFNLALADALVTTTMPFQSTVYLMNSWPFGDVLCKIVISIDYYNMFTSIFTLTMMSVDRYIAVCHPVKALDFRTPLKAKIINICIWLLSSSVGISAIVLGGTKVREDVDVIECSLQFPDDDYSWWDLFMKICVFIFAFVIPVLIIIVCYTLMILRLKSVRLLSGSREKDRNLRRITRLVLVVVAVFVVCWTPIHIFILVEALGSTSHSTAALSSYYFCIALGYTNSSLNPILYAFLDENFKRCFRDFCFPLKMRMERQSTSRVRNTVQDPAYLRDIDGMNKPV

Q: With CC(=O)N1CCN(C(=O)Cc2ccccn2)C(CN2CCCC2)C1.Cl (racemic) [Example 1gg, 4-Acetyl-1-[(2-pyridyl)acetyl]-2-(R,S)-[(1-pyrrolidinyl)methyl]piperazine hydrochloride] as the compound, how does the “(3H)-Diprenorphin, %” value read?
A: Its value is 27% @ 1 mM.

Q: For “(±)-trans-3-N-Methyl-N-[2-(1-pyrrolidinyl)cyclohexyl]-(trans-3-furyl)acetamide hydrochloride [Example 4f]”, which “[3H]-Diprenorphin, % @ 1 μM” value is on record?
A: Its value is 0% @ 1 μM.

Q: How did the “(3H)-Diprenorphin, %” value turn out when Cl.O=CN1CCN(C(=O)Cc2ccccn2)C(CN2CCCC2)C1 (racemic) [Example 1hh, 4-Formyl-1-[(2-pyridyl)acetyl]-2-(R,S)-[(1-pyrrolidinyl)methyl]piperazine hydrochloride] was run?
A: Its value is 0% @ 1 mM.

Q: For CN(C(=O)Cc1ccc(C(F)(F)F)cc1NC(=O)/C=C\C(=O)O)C1CCCCC1N1CCCC1 (racemic) [Example 4b, (Z)-4-[2-((±)-trans-2-Amino-4-trifluoromethyl-N-methyl-N-[2-(1-pyrrolidinyl)-cyclohexyl]-phenylaetamido)]4-oxo-2-butenoic acid], which “[3H]-Diprenorphin, % @ 1 μM” value is on record?
A: The value was 22% @ 1 μM.

Same assay, conditions: Ki (nM) [3H]-Diprenorphin κ

Q: For COc1cccc(C(CN2CCCC2)N(C)C(=O)Cc2ccccc2NS(C)(=O)=O)c1 (racemic) [Example 3uu, (R,S)-1-[2-(Methanesulfonylamino)phenyl-N-methylacetamido]-1-(3-methoxyphenyl)-2-(1-pyrrolidino)-ethane, methanesulfonic acid salt], which Ki is on record?
A: The Ki was 17.5 nM.

Q: COc1cc(CC(=O)N(C)[C@H](CN2CC[C@H](O)C2)c2ccccc2)c(S(=O)(=O)N2CCN(C)CC2)cc1OC [Example 139] was tested. Which Ki did it give?
A: The Ki was 4.2 nM.

Q: COc1cc(CC(=O)N(C)[C@H](CN2CCCC2)c2ccccc2)c(S(=O)(=O)N(C)Cc2ccccc2)cc1OC [Example 148, 2-[2-(N-Benzyl-N-methylsulfamoyl)-4,5-dimethoxyphenyl]-N-methyl-N-[(1S)-1-phenyl-2-[(1-pyrrolidinyl)ethyl]]acetamide] was tested. Which Ki did it give?
A: The Ki was 0.83 nM.

Q: CN(C(=O)Cc1ccccc1NS(C)(=O)=O)C(CN1CCCC1)c1cccc(O)c1 (racemic) [Example 3vv, (R,S)-1-[2-(Methanesulfonylamino)phenyl-N-methylacetamido]-1-(3-hydroxyphenyl)-2-(1-pyrrolidino)-ethane, methanesulfonic acid salt] was tested. Which Ki did it give?
A: The Ki was 19.5 nM.

Q: For CCOC(=O)/C=C/C(=O)Nc1cc(Cl)c(Cl)cc1CC(=O)N(C)[C@H](CN1CCCC1)c1ccccc1 [Example 3y, (E) Ethyl 4-[2-(2-amino-4,5-dichlorophenyl)-N-methyl-N-[(1S)-1-phenyl)-2-[1-pyrrolidinyl]ethyl]acetamido]4-oxo-2-butenoate hydrochloride], which Ki is on record?
A: Its Ki is 0.35 nM.

Q: COc1cc(CC(=O)N(C)[C@H](CN2CCCC2)c2ccccc2)c(S(=O)(=O)N2CCOCC2)cc1OC [Example 140, 2-[2-N-(Morpholinesulfamoyl)-4,5-dimethoxyphenyl]-N-methyl-N-[(1S)-1-phenyl-2-[1-(pyrrolidinyl)ethyl]]acetamide] was tested. Which Ki did it give?
A: The Ki was 0.56 nM.

Q: Which Ki does the source give for COc1cc(CC(=O)N(C)[C@H](CN2CC[C@H](O)C2)c2ccccc2)c(S(=O)(=O)N2CCCC2)cc1OC [Example 135, 2-[2-(N-Pyrrolidinesulfamoyl)-4,5-dimethoxyphenyl]-N-methyl-N-[(1S)-1-phenyl-2-[1-(3S)-(3-hydroxypyrrolidinyl)ethyl]]acetamide] here?
A: Its Ki is 0.66 nM.

Q: For CC(C)C(=O)Nc1cccc([C@@H](CN2CCCC2)N(C)C(=O)Cc2ccccc2NC(=O)C(C)C)c1 [Example 3qq, 2-(2-Iso-butyramidophenyl)-N-methyl-N-[(1S)-1-(3-isobutyramido-phenyl)-2-(1-pyrrolidinyl)ethyl]acetamide Methanesulfonic acid salt], which Ki is on record?
A: The Ki was 21 nM.

Q: With CN(C(=O)Cc1cc2c(cc1S(=O)(=O)N(C)Cc1ccccc1)OCO2)[C@H](CN1CCCC1)c1ccccc1 [Example 131, 2-[2-(N-Benzyl-N-methylsulfamoyl)-4,5-methylenedioxyphenyl]-N-methyl-N-[(1S)-1-phenyl-2-[(1-pyrrolidinyl)ethyl]]acetamide] as the compound, how does the Ki read?
A: Its Ki is 0.22 nM.

Q: For COc1cc(CC(=O)N(C)[C@H](CN2CCCC2)c2ccccc2)c(S(=O)(=O)N(C)CC(=O)O)cc1OC [Example 142, N-Methyl-[[2-(N-sulfamoyl)-4,5-dimethoxyphenyl]-N-methyl-N-[(1S)-1-phenyl-2-[1-(pyrrolidinyl)ethyl]]acetamido]glycine], which Ki is on record?
A: Its Ki is 13 nM.

Same assay, conditions: Ki, nM 3H-Diprenorphin

Q: Which Ki does the source give for CNS(=O)(=O)c1ccc(CC(=O)N2CCN(C(=O)OC)CC2CN2CCCC2)cc1 (racemic) [Example 1f, Methyl-4-[-4-[N-methylamino)sulfamyl]phenyl)acetyl]-3-(R,S)-[(1-pyrrolidinyl)methyl]-1-piperazinecarboxylate hydrochloride] here?
A: Its Ki is 53.5 nM.

Q: Which Ki does the source give for COC(=O)N1CCN(C(=O)Cc2ccc(C(F)(F)F)cc2)C(CN2CC[C@H](OC(=O)Cc3ccc(C(F)(F)F)cc3)C2)C1 (mixture of isomers) [Example 1j, Methyl-4-[(4-a,a,a-trifluoromethylphenyl)acetyl]-3-(R,S)-[3-(S)-(4′-α,α,α-trifluoro methylphenylacetate)-1-(pyrrolidinyl)methyl]-1-piperazinecarboxylate hydrochloride] here?
A: Its Ki is 13 nM.

Q: For CS(=O)(=O)N1CCN(C(=O)Cc2ccc(C(F)(F)F)cc2)C(CN2CC[C@H](OC(=O)Cc3ccc(C(F)(F)F)cc3)C2)C1 (stereo partly drawn) [Example 1mm, 4-Methylsulphonyl-1-[(4-α,α,α-triflouromethylphenyl)acetyl]-2-(R,S)-[3-(S)-(4′-α,α,α-triflouromethylphenyl acetate)-1-(pyrrolidinyl)methyl]piperazine hydrochloride], which Ki is on record?
A: Its Ki is 287 nM.

Q: With COC(=O)N1CCN(C(=O)Cc2ccc(C(F)(F)F)cc2N)C(CN2CCC[C@H]2CO)C1 (mixture of isomers) [Example 1p, Methyl-4-[(2-amino-4-α,α,α-trifluoromethylphenyl)acetyl]-3-(R,S)-[(2-(S)-pyrrolidinemethanol)methyl]-1-piperazinecarboxylate hydrochloride] as the compound, how does the Ki read?
A: The Ki was 11 nM.

Same assay, conditions: Table IA; read-out: Ki(nM) (3H)-Diprenorphin

Q: Which Ki does the source give for CC(=O)N1CCN(C(=O)Cc2ccc(S(C)(=O)=O)cc2)C(CN2CC[C@H](OC(=O)Cc3ccc(S(C)(=O)=O)cc3)C2)C1 (mixture of isomers) [Example 1u, 4-Acetyl-1-[(4-methylsulfonyl]phenyl)acetyl]-2-(R,S)-[3-(S)-(4′-methylsulfonylphenyl acetate)-1-(Pyrrolidinyl)methyl]piperazine hydrochloride] here?
A: The Ki was 1780 nM.

Same assay, conditions: Table IIIA; read-out: Ki (nM) [3H]-Diprenorphin κ

Q: Which Ki does the source give for CN(C(=O)Cc1ccc(C(F)(F)F)cc1NCC(=O)O)[C@H](CN1CCCC1)c1ccccc1 [Example 3b, N-[(4-Trifluoromethylphenyl)-N-methyl-N-{[1S]-1-phenyl-2-[1-pyrrolidinyl)]ethyl}acetamido]glycine hydrochloride] here?
A: Its Ki is 464 nM.

Same assay, conditions: read-out: Ki(nM) [3H]-Diprenorphin κ

Q: For COc1cc(CC(=O)N(C)[C@H](CN2CCCC2)c2ccccc2)c(S(=O)(=O)NC(C)(C)C)c(OC)c1OC [Example 144, 2-[2-(N-t-Butylsulfamoyl)-3,4,5-trimethoxyphenyl]-N-methyl-N-[(1S)-1-phenyl-2-[(1-pyrrolidinyl)ethyl]]acetamide], which Ki is on record?
A: The Ki was 0.17 nM.

Q: COc1cc(CC(=O)N(C)[C@H](CN2CC[C@H](O)C2)c2ccccc2)c(S(=O)(=O)N(C)C)cc1OC [Example 137, 2-[2-(N-Dimethylsulfamoyl)-4,5-dimethoxyphenyl]-N-methyl-N-[(1S)-1-phenyl-2-[1-(3S)-(3-hydroxypyrrolidinyl)ethyl]]acetamide] was tested. Which Ki did it give?
A: The Ki was 0.83 nM.
